Tests used:
Recombinant IKKβ = biological target: T1, Recombinant IKKβ (Homo sapiens, UniProt O14920); experiment: DELFIA IKKβ kinase assay (apparent Ki, Cheng-Prusoff); type: biochemical
T1 construct: purchased Millipore, Dundee, UK
T1 sequence (O14920 1-756): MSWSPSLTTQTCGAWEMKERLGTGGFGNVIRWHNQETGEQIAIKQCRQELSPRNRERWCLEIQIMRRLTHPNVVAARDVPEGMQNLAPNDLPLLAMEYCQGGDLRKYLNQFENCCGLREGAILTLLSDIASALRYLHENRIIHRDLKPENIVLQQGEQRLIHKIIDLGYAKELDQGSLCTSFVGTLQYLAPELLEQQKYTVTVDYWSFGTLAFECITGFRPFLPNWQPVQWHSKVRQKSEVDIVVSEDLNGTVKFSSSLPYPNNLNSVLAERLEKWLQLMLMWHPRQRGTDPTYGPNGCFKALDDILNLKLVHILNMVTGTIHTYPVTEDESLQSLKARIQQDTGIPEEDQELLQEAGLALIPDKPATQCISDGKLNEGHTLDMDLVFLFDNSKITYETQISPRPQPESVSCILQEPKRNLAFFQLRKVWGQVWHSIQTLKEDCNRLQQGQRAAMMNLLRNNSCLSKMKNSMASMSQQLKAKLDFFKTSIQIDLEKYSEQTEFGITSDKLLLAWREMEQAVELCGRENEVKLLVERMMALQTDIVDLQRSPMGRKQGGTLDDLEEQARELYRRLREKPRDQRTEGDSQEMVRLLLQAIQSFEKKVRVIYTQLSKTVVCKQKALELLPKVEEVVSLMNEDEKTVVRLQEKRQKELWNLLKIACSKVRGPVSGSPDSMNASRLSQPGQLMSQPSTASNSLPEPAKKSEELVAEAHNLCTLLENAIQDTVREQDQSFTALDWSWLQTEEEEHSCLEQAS
Method: (§1) IKKα and IKKβ inhibitory activity was determined using three different assays: a dissociation enhanced ligand fluorescent immunoassay (DELFIA) based on the protocol of HTScan™ IKKβ Kinase Assay (Cell Signaling Technology, USA); an Adapta IKKα assay (performed by Life Technologies); a Z′-LYTE™ IKKβ assay (performed by Life Technologies).
(§2) Recombinant IKKα or IKKβ, 37 nM, (Millipore, Dundee, UK) was incubated with IηB-α (Ser32) (New England Biolabs, Hitchin, UK) biotinylated peptide substrate (0.375 μM) and 40 μM ATP in assay buffer (40 mM Tris-HCl (pH 7.5), 20 mM MgCl2, EDTA 1 mM, DTT 2 mM and BSA 0.01 mg/ml) in a V-well 96-well plate in the presence and absence of test compound. The assay plate was incubated for 60 minutes at 30° C. after which the kinase reaction was quenched by the addition of 50 mM EDTA, pH8. The resulting mixture was transferred to a streptavidin coated 96-well plate (Perkin Elmer, Beaconsfield, UK) and incubated for 1 hour at 30° C. to immobilise the substrate peptide. After three washes with wash buffer (0.01 M phosphate buffered saline (PBS), 0.05% Tween −20, pH 7.4) a primary antibody against the phosphorylated substrate (phospho-IηB-a) (Ser32/36) (5A5) Mouse mAb (New England Biolabs, Hitchin, UK) (1:1000 dilution with 1% bovine serum albumin (BSA) in wash buffer) was added and incubated at 37° C. for 2 h.
(§3) After a further three washes, a secondary europiated antibody (Eu-N1 labelled anti-mouse IgG, (Perkin Elmer, Beaconsfield, UK) diluted 1:500 in 1% BSA/wash buffer) was added and incubated at 30° C. for 30 minutes. After a further five washes, DELFIA enhancement solution—(Perkin Elmer, Beaconsfield UK) was added and allowed to incubate for 10 min at room temperature, protected from light, to facilitate the chemifluorescent detection. The relative fluorescence units (RFU) signal were measured on a Wallac Victor 1420 multilabel counter (Perkin Elmer, Beaconsfield, UK), in time-resolved fluorescence mode. The counter was set at an excitation wavelength of 340 nm with a 400 μs delay before detecting emitted light at 615 nm. The apparent Ki of the […] was calculated for each compound using the Cheng-Prusoff Equation.
(§4) The IKKα and IKKβ figures quoted in non-italicised form are from the DELFIA assay described above.

Recombinant IKKα = biological target: T2, Recombinant IKKα (Homo sapiens, UniProt O15111); experiment: DELFIA IKKα kinase assay (apparent Ki, Cheng-Prusoff); type: biochemical
T2 construct: purchased Millipore, Dundee, UK
T2 sequence (O15111 1-745): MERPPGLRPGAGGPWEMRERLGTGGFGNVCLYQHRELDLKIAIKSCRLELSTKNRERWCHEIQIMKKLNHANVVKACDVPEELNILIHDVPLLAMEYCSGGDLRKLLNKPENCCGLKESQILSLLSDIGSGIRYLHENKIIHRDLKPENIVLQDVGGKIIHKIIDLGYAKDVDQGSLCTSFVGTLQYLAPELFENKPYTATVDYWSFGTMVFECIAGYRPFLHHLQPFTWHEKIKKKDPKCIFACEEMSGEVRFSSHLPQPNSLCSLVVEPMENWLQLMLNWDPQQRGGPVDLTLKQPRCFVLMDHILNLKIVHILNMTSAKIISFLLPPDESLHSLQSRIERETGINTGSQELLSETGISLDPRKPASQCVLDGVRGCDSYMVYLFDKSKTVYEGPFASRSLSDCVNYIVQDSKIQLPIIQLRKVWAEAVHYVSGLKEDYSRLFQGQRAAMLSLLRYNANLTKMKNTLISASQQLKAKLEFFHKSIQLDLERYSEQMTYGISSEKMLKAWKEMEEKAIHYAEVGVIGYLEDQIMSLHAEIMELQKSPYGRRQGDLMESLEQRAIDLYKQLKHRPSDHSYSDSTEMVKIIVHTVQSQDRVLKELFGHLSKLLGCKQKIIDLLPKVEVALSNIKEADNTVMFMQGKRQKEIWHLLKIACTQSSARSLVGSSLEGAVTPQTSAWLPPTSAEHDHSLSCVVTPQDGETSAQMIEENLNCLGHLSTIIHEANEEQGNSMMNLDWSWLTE
Method: as §1, §2, §3, §4

[1] = non-italicised figure: DELFIA assay
[2] = DELFIA assay (first line of an example)

Ki (Recombinant IKKβ; [1]) | Ki (Recombinant IKKα; [1]) | Ki (Recombinant IKKβ; [2]) | Ki (Recombinant IKKα; [2]) | Structure (SMILES)
1.26 µM | 0.035 µM |  |  | Nc1n[nH]c2c(-c3ccccc3)cc(-c3ccnc4[nH]ccc34)cc12 [Example 7, 7-Phenyl-5-(1H-pyrrolo[2,3-b]pyridin-4-yl)-1H-indazol-3-amine]
 |  | 0.274 µM | 0.037 µM | COC(=O)Nc1cc(-c2cc(C#CC3CCOCC3)c3[nH]nc(N)c3c2)ccn1 [Example 285]
0.406 µM | 0.029 µM |  |  | Nc1cc(-c2cc(-c3ccc(CO)cc3)c3[nH]nc(N)c3c2)ccn1 [Example 118]
0.022 µM | 0.004 µM |  |  | Nc1cccc(C#Cc2c(-c3ccc4[nH]nc(N)c4c3)ccnc2N)c1 [Example 77, 5-(2-Amino-3-((3-aminophenyl)ethynyl)pyridine-4-yl)-1H-indazol-3-amine]
1.59 µM | 0.056 µM |  |  | NC(=O)c1ccc(-c2cc(-c3ccnc(N)c3)cc3c(N)n[nH]c23)cc1 [Example 120, 4-(3-Amino-5-(2-aminopyridin-4-yl)-1H-indazol-7-yl)benzamide]
2.48 µM | 0.076 µM |  |  | Nc1n[nH]c2ccc(-c3ccnc(NC(=O)Nc4cccc(OCc5ccccc5F)c4)c3)cc12 [Example 60, 1-(4-(3-Amino-1H-indazol-5-yl)pyridin-2-yl)-3-(3-((2-fluorobenzyl)oxy)phenyl)urea]
2.8 µM | 0.141 µM |  |  | CC(C)(C)C#Cc1cc(-c2ccnc(NCC3CC3)c2)cc2c(N)n[nH]c12 [Example 157, 5-(2-((Cyclopropylmethyl)amino)pyridin-4-yl)-7-(3,3-dimethylbut-1-yn-1-yl)-1H-indazol-3-amine]
 |  |  | 0.013 µM | CC(C)(C)C#Cc1cc(-c2ccnc3[nH]c(CN4CCOCC4)cc23)cc2c(N)n[nH]c12 [Example 279, 7-(3,3-Dimethylbut-1-yn-1-yl)-5-(2-(morpholinomethyl)-1H-pyrrolo[2,3-b]pyridin-4-yl)-1H-indazol-3-amine]
0.22 µM | 0.008 µM |  |  | CC(C)(C)C#Cc1cc(-c2ccnc(N)c2F)cc2c(N)n[nH]c12 [Example 149, 5-(2-Amino-3-fluoropyridin-4-yl)-7-(3,3-dimethylbut-1-yn-1-yl)-1H-indazol-3-amine]
0.335 µM | 0.033 µM |  |  | Nc1n[nH]c2ccc(-c3ccnc(NCCCCCO)c3)cc12 [Example 23]
1.05 µM | 0.046 µM |  |  | Cc1ccccc1NC(=O)Nc1cc(-c2ccc3[nH]nc(N)c3c2)ccn1 [Example 66, 1-(4-(3-Amino-1H-indazol-5-yl)pyridin-2-yl)-3-(o-tolyl)urea]
 |  | 0.079 µM | 0.006 µM | COC(=O)Nc1cc(-c2cc(-c3ccc(N)cc3)c3[nH]nc(N)c3c2)ccn1 [Example 325, Methyl (4-(3-amino-7-(4-aminophenyl)-1H-indazol-5-yl)pyridin-2-yl)carbamate]
0.109 µM | 0.019 µM |  |  | CC(C)(C)c1cc2c(-c3ccc4[nH]nc(N)c4c3)ccnc2[nH]1 [Example 9, 2-(Tert-butyl)-4-(3-amino-1H-indazol-5-yl)-7-azaindole]
 |  | 0.059 µM | 0.006 µM | Nc1n[nH]c2ccc(-c3ccnc4[nH]c(CNc5ccccc5)cc34)cc12 [Example 252, 5-(2-((Phenylamino)methyl)-1H-pyrrolo[2,3-b]340yridine-4-yl)-1H-indazol-3-amine]
 |  | > 3.33 µM | 0.223 µM | CC(C)(C)C#Cc1cc(-c2ccnc3[nH]c(C(F)(F)F)nc23)cc2c(N)n[nH]c12 [Example 308, 7-(3,3-dimethylbut-1-yn-1-yl)-5-(2-(trifluoromethyl)-3H-imidazo[4,5-b]pyridin-7-yl)-1H-indazol-3-amine]
0.35 µM | 0.015 µM |  |  | CC(=O)Nc1cc(-c2cc(C#CC(C)(C)C)c3[nH]nc(N)c3c2)ccn1 [Example 164, N-(4-(3-Amino-7-(3,3-dimethylbut-1-yn-1-yl)-1H-indazol-5-yl)pyridin-2-yl)acetamide]
 | 5.58 µM |  |  | Nc1nccc(-c2ccc3[nH]nc(N)c3c2)c1CCCCO [Example 101, 4-(2-Amino-4-(3-amino-1H-indazol-5-yl)pyridin-3-yl)butan-1-ol]
 | 0.022 µM |  |  | CC(=O)Nc1cc(-c2cc(C#Cc3ccccc3)c3[nH]nc(N)c3c2)ccn1 [Example 178, N-(4-(3-Amino-7-(phenylethynyl)-1H-indazol-5-yl)pyridin-2-yl)acetamide]
 | 8.98 µM |  |  | Nc1nccc(-c2ccc3[nH]nc(N)c3c2)c1CCC1(O)CCCCC1 [Example 102, 1-(2-(2-Amino-4-(3-amino-1H-indazol-5-yl)pyridin-3-yl)ethyl)cyclohexan-1-ol]
 | 0.573 µM |  |  | CC(C)(C)C#Cc1cc(-c2cc(N)nc(F)c2)cc2c(N)n[nH]c12 [Example 150, 5-(2-Amino-6-fluoropyridin-4-yl)-7-(3,3-dimethylbut-1-yn-1-yl)-1H-indazol-3-amine]
 | 0.019 µM |  |  | CC1(C#Cc2cc(-c3ccnc(NC4CC4)c3)cc3c(N)n[nH]c23)COC1 [Example 176, 5-(2-(Cyclopropylamino)pyridine-4-yl)-7-((3-methyloxetan-3-yl)ethynyl)-1H-indazol-3-amine]
 | 24.8 µM |  |  | Nc1nccc(-c2ccc3[nH]nc(N)c3c2)c1CCCCCO [Example 103, 5-(2-Amino-4-(3-amino-1H-indazol-5-yl)pyridin-3-yl)pentan-1-ol]
 | 0.931 µM |  |  | CC(C)(C)C#Cc1cc(-c2cc(N)nc(N)c2)cc2c(N)n[nH]c12 [Example 151, 4-(3-Amino-7-(3,3-dimethylbut-1-yn-1-yl)-1H-indazol-5-yl)pyridine-2,6-diamine]
 |  |  | 21.8 µM | CC(=O)Nc1cc(-c2cc(C#CC(C)(C)C)c3[nH]nc(N)c3c2)cc(F)n1 [Example 195, N-(4-(3-amino-7-(3,3-dimethylbut-1-yn-1-yl)-1H-indazol-5-yl)-6-fluoropyridin-2-yl)acetamide]
 | 0.517 µM |  |  | CC(C)(C)C#Cc1cc(-c2ccnc(N)n2)cc2c(N)n[nH]c12 [Example 143, 5-(2-Aminopyrimidin-4-yl)-7-(3,3-dimethylbut-1-yn-1-yl)-1H-indazol-3-amine]
 |  |  | 5.52 µM | CC(C)(C)C#Cc1cc(-c2ccnc(NS(C)(=O)=O)c2)cc2c(N)n[nH]c12 [Example 193, N-(4-(3-Amino-7-(3,3-dimethylbut-1-yn-1-yl)-1H-indazol-5-yl)pyridine-2-yl)methanesulfonamide]
